Experimental data taken from the NIST ThermoML archive (doi:10.1021/je900164a).
± gives the expanded uncertainty stated by the source.

Test: xn = mol fraction of the nth substance listed
Details: 101 kPa, Liquid, Vibrating tube method

CNC(=O)NC [1,3-dimethylurea] + O
Details | mass density [kg/m3]
274.15 K, x1 = 0.000898 | 1000.36 ± 0.04
274.15 K, x1 = 0.0018 | 1000.83 ± 0.041
274.15 K, x1 = 0.00448 | 1002.26 ± 0.041
274.15 K, x1 = 0.00893 | 1004.68 ± 0.043
274.15 K, x1 = 0.01771 | 1009.58 ± 0.049
274.15 K, x1 = 0.02461 | 1013.5 ± 0.053
274.15 K, x1 = 0.03141 | 1017.27 ± 0.059
274.15 K, x1 = 0.03815 | 1021.02 ± 0.065
274.15 K, x1 = 0.04471 | 1024.43 ± 0.072
274.15 K, x1 = 0.05126 | 1027.8 ± 0.078
274.15 K, x1 = 0.06722 | 1035.64 ± 0.096
274.15 K, x1 = 0.08246 | 1042.41 ± 0.12
275.15 K, x1 = 0.000898 | 1000.39 ± 0.04
275.15 K, x1 = 0.0018 | 1000.85 ± 0.041
275.15 K, x1 = 0.00448 | 1002.25 ± 0.065
275.15 K, x1 = 0.00893 | 1004.65 ± 0.043
275.15 K, x1 = 0.01771 | 1009.48 ± 0.048
275.15 K, x1 = 0.02461 | 1013.35 ± 0.053
275.15 K, x1 = 0.03141 | 1017.12 ± 0.059
275.15 K, x1 = 0.03815 | 1020.73 ± 0.065
275.15 K, x1 = 0.04471 | 1024.13 ± 0.071
275.15 K, x1 = 0.05126 | 1027.45 ± 0.078
275.15 K, x1 = 0.06722 | 1035.23 ± 0.097
275.15 K, x1 = 0.08246 | 1042.02 ± 0.12
276.15 K, x1 = 0.000898 | 1000.4 ± 0.04
276.15 K, x1 = 0.0018 | 1000.86 ± 0.041
276.15 K, x1 = 0.00448 | 1002.26 ± 0.041
276.15 K, x1 = 0.00893 | 1004.64 ± 0.043
276.15 K, x1 = 0.01771 | 1009.4 ± 0.048
276.15 K, x1 = 0.02461 | 1013.24 ± 0.053
276.15 K, x1 = 0.03141 | 1016.94 ± 0.059
276.15 K, x1 = 0.03815 | 1020.54 ± 0.065
276.15 K, x1 = 0.04471 | 1023.92 ± 0.071
276.15 K, x1 = 0.05126 | 1027.2 ± 0.077
276.15 K, x1 = 0.06722 | 1034.87 ± 0.096
276.15 K, x1 = 0.08246 | 1041.67 ± 0.12
277.15 K, x1 = 0.000898 | 1000.41 ± 0.04
277.15 K, x1 = 0.0018 | 1000.87 ± 0.041
277.15 K, x1 = 0.00448 | 1002.27 ± 0.041
277.15 K, x1 = 0.00893 | 1004.63 ± 0.043
277.15 K, x1 = 0.01771 | 1009.35 ± 0.048
277.15 K, x1 = 0.02461 | 1013.14 ± 0.053
277.15 K, x1 = 0.03141 | 1016.8 ± 0.058
277.15 K, x1 = 0.03815 | 1020.37 ± 0.064
277.15 K, x1 = 0.04471 | 1023.74 ± 0.07
277.15 K, x1 = 0.05126 | 1027.03 ± 0.077
277.15 K, x1 = 0.06722 | 1034.56 ± 0.095
277.15 K, x1 = 0.08246 | 1041.26 ± 0.12
278.15 K, x1 = 0.000898 | 1000.41 ± 0.04
278.15 K, x1 = 0.0018 | 1000.86 ± 0.041
278.15 K, x1 = 0.00448 | 1002.23 ± 0.041
278.15 K, x1 = 0.00893 | 1004.56 ± 0.043
278.15 K, x1 = 0.01771 | 1009.26 ± 0.048
278.15 K, x1 = 0.02461 | 1013.05 ± 0.053
278.15 K, x1 = 0.03141 | 1016.7 ± 0.059
278.15 K, x1 = 0.03815 | 1020.22 ± 0.065
278.15 K, x1 = 0.04471 | 1023.58 ± 0.071
278.15 K, x1 = 0.05126 | 1026.87 ± 0.077
278.15 K, x1 = 0.06722 | 1034.3 ± 0.095
278.15 K, x1 = 0.08246 | 1040.88 ± 0.12
278.15 K, x1 = 0.09755 | 1046.81 ± 0.14
279.18 K, x1 = 0.000898 | 1000.38 ± 0.04
279.18 K, x1 = 0.0018 | 1000.83 ± 0.041
279.18 K, x1 = 0.00448 | 1002.19 ± 0.041
279.18 K, x1 = 0.00893 | 1004.5 ± 0.043
279.18 K, x1 = 0.01771 | 1009.16 ± 0.048
279.18 K, x1 = 0.02461 | 1012.89 ± 0.053
279.18 K, x1 = 0.03141 | 1016.44 ± 0.059
279.18 K, x1 = 0.03815 | 1019.9 ± 0.065
279.18 K, x1 = 0.04471 | 1023.29 ± 0.071
279.18 K, x1 = 0.05126 | 1026.57 ± 0.077
279.18 K, x1 = 0.06722 | 1033.9 ± 0.096
279.18 K, x1 = 0.08246 | 1040.45 ± 0.12
279.18 K, x1 = 0.09755 | 1046.32 ± 0.14
280.15 K, x1 = 0.000898 | 1000.35 ± 0.04
280.15 K, x1 = 0.0018 | 1000.78 ± 0.041
280.15 K, x1 = 0.00448 | 1002.14 ± 0.042
280.15 K, x1 = 0.00893 | 1004.44 ± 0.043
280.15 K, x1 = 0.01771 | 1009.05 ± 0.048
280.15 K, x1 = 0.02461 | 1012.74 ± 0.053
280.15 K, x1 = 0.03141 | 1016.24 ± 0.058
280.15 K, x1 = 0.03815 | 1019.66 ± 0.064
280.15 K, x1 = 0.04471 | 1023.02 ± 0.07
280.15 K, x1 = 0.05126 | 1026.26 ± 0.077
280.15 K, x1 = 0.06722 | 1033.52 ± 0.095
280.15 K, x1 = 0.08246 | 1040.01 ± 0.12
280.15 K, x1 = 0.09755 | 1045.78 ± 0.14
281.15 K, x1 = 0.000898 | 1000.29 ± 0.04
281.15 K, x1 = 0.0018 | 1000.73 ± 0.041
281.15 K, x1 = 0.00448 | 1002.06 ± 0.042
281.15 K, x1 = 0.00893 | 1004.34 ± 0.043
281.15 K, x1 = 0.01771 | 1008.91 ± 0.048
281.15 K, x1 = 0.02461 | 1012.56 ± 0.053
281.15 K, x1 = 0.03141 | 1016 ± 0.058
281.15 K, x1 = 0.03815 | 1019.47 ± 0.064
281.15 K, x1 = 0.04471 | 1022.79 ± 0.07
281.15 K, x1 = 0.05126 | 1025.97 ± 0.077
281.15 K, x1 = 0.06722 | 1033.21 ± 0.095
281.15 K, x1 = 0.08246 | 1039.61 ± 0.12
281.15 K, x1 = 0.09755 | 1045.39 ± 0.14
282.15 K, x1 = 0.000898 | 1000.22 ± 0.04
282.15 K, x1 = 0.0018 | 1000.65 ± 0.041
282.15 K, x1 = 0.00448 | 1001.98 ± 0.042
282.15 K, x1 = 0.00893 | 1004.22 ± 0.043
282.15 K, x1 = 0.01771 | 1008.75 ± 0.048
282.15 K, x1 = 0.02461 | 1012.36 ± 0.053
282.15 K, x1 = 0.03141 | 1015.77 ± 0.058
282.15 K, x1 = 0.03815 | 1019.19 ± 0.064
282.15 K, x1 = 0.04471 | 1022.47 ± 0.07
282.15 K, x1 = 0.05126 | 1025.61 ± 0.077
282.15 K, x1 = 0.06722 | 1032.76 ± 0.095
282.15 K, x1 = 0.08246 | 1039.05 ± 0.12
282.15 K, x1 = 0.09755 | 1044.75 ± 0.14
283.15 K, x1 = 0.000898 | 1000.13 ± 0.04
283.15 K, x1 = 0.0018 | 1000.57 ± 0.041
283.15 K, x1 = 0.00448 | 1001.88 ± 0.041
283.15 K, x1 = 0.00893 | 1004.12 ± 0.043
283.15 K, x1 = 0.01771 | 1008.6 ± 0.048
283.15 K, x1 = 0.02461 | 1012.17 ± 0.053
283.15 K, x1 = 0.03141 | 1015.58 ± 0.058
283.15 K, x1 = 0.03815 | 1019.01 ± 0.064
283.15 K, x1 = 0.04471 | 1022.23 ± 0.07
283.15 K, x1 = 0.05126 | 1025.27 ± 0.077
283.15 K, x1 = 0.06722 | 1032.44 ± 0.096
283.15 K, x1 = 0.08246 | 1038.58 ± 0.12
283.15 K, x1 = 0.09755 | 1044.35 ± 0.14
288.15 K, x1 = 0.000898 | 999.526 ± 0.041
288.15 K, x1 = 0.0018 | 999.93 ± 0.041
288.15 K, x1 = 0.00448 | 1001.23 ± 0.042
288.15 K, x1 = 0.00893 | 1003.35 ± 0.044
288.15 K, x1 = 0.01771 | 1007.67 ± 0.048
288.15 K, x1 = 0.02461 | 1011.04 ± 0.053
288.15 K, x1 = 0.03141 | 1014.35 ± 0.058
288.15 K, x1 = 0.03815 | 1017.55 ± 0.063
288.15 K, x1 = 0.04471 | 1020.59 ± 0.069
288.15 K, x1 = 0.05126 | 1023.54 ± 0.076
288.15 K, x1 = 0.06722 | 1030.34 ± 0.093
288.15 K, x1 = 0.08246 | 1036.44 ± 0.11
288.15 K, x1 = 0.09755 | 1041.6 ± 0.14
298.15 K, x1 = 0.000898 | 997.452 ± 0.043
298.15 K, x1 = 0.0018 | 997.853 ± 0.043
298.15 K, x1 = 0.00448 | 999.058 ± 0.042
298.15 K, x1 = 0.00893 | 1001.08 ± 0.043
298.15 K, x1 = 0.01771 | 1005.1 ± 0.048
298.15 K, x1 = 0.02461 | 1008.24 ± 0.052
298.15 K, x1 = 0.03141 | 1011.28 ± 0.057
298.15 K, x1 = 0.03815 | 1014.24 ± 0.062
298.15 K, x1 = 0.04471 | 1017.04 ± 0.068
298.15 K, x1 = 0.05126 | 1019.75 ± 0.074
298.15 K, x1 = 0.06722 | 1025.98 ± 0.091
298.15 K, x1 = 0.08246 | 1031.41 ± 0.11
298.15 K, x1 = 0.09755 | 1036.31 ± 0.13
308.15 K, x1 = 0.000898 | 994.42 ± 0.045
308.15 K, x1 = 0.0018 | 994.802 ± 0.045
308.15 K, x1 = 0.00448 | 995.947 ± 0.045
308.15 K, x1 = 0.00893 | 997.861 ± 0.044
308.15 K, x1 = 0.01771 | 1001.7 ± 0.047
308.15 K, x1 = 0.02461 | 1004.63 ± 0.051
308.15 K, x1 = 0.03141 | 1007.43 ± 0.055
308.15 K, x1 = 0.03815 | 1010.16 ± 0.06
308.15 K, x1 = 0.04471 | 1012.76 ± 0.066
308.15 K, x1 = 0.05126 | 1015.27 ± 0.072
308.15 K, x1 = 0.06722 | 1021.16 ± 0.088
308.15 K, x1 = 0.08246 | 1026.06 ± 0.11
308.15 K, x1 = 0.09755 | 1030.33 ± 0.13
